The source made the active and inactive calls. No cut-off for these calls is given here.
Experiments:
[1] = molecular target: T1, Pyruvate kinase PKM (Homo sapiens, UniProt P14618); assay: Activation of recombinant human PKM2 at 10 uM incubated 30 mins by fluorescence microplate reader analysis; settings: filed as activator
Target sequence in this assay (P14618 2-531 limits assumed): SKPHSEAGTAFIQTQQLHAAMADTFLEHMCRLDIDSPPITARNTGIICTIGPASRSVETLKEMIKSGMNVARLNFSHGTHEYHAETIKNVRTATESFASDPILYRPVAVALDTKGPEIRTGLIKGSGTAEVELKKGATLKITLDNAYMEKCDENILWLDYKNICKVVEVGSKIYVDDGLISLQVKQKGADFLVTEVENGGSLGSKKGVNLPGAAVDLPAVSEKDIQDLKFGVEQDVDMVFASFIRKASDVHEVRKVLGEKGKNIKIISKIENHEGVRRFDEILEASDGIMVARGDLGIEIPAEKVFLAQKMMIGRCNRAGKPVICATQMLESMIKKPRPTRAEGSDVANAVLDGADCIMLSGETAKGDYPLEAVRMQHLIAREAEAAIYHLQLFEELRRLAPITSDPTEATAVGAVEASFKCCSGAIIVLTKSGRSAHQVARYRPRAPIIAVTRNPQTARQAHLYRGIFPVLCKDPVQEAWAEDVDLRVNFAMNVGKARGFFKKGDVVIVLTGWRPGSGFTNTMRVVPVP

[2] = tested on: HT-29; assay: Cytotoxicity against human HT-29 cells assessed as reduction in cell viability incubated for 48 hrs by MTT assay; type: functional, cell-based; settings: HT-29, 48 h
[3] = tested on: SW480; assay: Cytotoxicity against human SW480 cells assessed as reduction in cell viability incubated for 48 hrs by MTT assay; type: functional, cell-based; settings: SW480, 48 h
[4] = tested on: U2OS; assay: Cytotoxicity against human U2OS cells assessed as reduction in cell viability incubated for 48 hrs by MTT assay; type: functional, cell-based
[5] = tested on: HepG2; assay: Cytotoxicity against human HepG2 cells assessed as reduction in cell viability incubated for 48 hrs by MTT assay; type: functional, cell-based; settings: HepG2, 48 h
[6] = tested on: MDA-MB-231; assay: Cytotoxicity against human MDA-MB-231 cells assessed as reduction in cell viability incubated for 48 hrs by MTT assay; type: functional, cell-based; settings: MDA-MB-231, 48 h
[7] = tested on: NCM460; assay: Cytotoxicity against human NCM460 cells assessed as reduction in cell viability incubated for 48 hrs by MTT assay; type: cell-based; settings: NCM460, 48 h
[8] = Selectivity index, ratio of IC50 for human NCM460 cells to IC50 for human HT-29 cells; type: toxicity; settings: NCM460 cells versus HT-29 cells, read-out: Ratio IC50
[9] = Selectivity index, ratio of IC50 for human NCM460 cells to IC50 for human SW480 cells
[10] = molecular target: T1, Pyruvate kinase PKM; assay: Activation of recombinant human PKM2 incubated 30 mins by fluorescence microplate reader analysis
Target sequence in this assay (P14618 whole entry): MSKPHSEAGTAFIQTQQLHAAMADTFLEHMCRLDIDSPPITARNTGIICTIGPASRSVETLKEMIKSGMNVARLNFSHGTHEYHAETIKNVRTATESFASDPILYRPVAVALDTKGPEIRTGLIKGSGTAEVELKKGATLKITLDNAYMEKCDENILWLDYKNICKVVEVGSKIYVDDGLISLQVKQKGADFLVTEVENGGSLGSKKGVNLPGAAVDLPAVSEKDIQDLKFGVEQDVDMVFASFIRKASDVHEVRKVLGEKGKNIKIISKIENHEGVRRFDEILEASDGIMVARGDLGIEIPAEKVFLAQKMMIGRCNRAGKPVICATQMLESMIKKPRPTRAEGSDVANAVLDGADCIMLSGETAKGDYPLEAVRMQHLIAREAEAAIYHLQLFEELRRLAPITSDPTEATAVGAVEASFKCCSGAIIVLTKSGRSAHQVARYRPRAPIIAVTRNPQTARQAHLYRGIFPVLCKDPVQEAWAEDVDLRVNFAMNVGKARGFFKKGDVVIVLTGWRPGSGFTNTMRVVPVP

[11] = molecular target: T1, Pyruvate kinase PKM; assay: Binding affinity to recombinant human PKM2 assessed as covalent adduct formation incubated for 1 hr by LC-MS/MS analysis; settings: filed as activator
Target sequence in this assay (P14618 2-531 limits assumed): as the sequence (P14618 2-531 limits assumed) above

[12] = tested on: HT-29; assay: Effect on total PKM2 protein expression in nucleus of human HT-29 cells at 0.45 to 1.8 uM after 48 hrs by Western blot analysis; type: functional, cell-based; settings: dose 0.45-1.8 µM
[13] = tested on: HT-29; assay: Effect on total PKM2 protein expression in cytoplasm of human HT-29 cells at 0.45 to 1.8 uM after 48 hrs by Western blot analysis; type: functional, cell-based; settings: dose 0.45-1.8 µM
[14] = molecular target: T1, Pyruvate kinase PKM; assay: Inhibition of PKM2 dimer nuclear translocation in human HT-29 cells by immunostaining based analysis; type: cell-based
Target sequence in this assay (P14618 2-531 limits assumed): as above

[15] = molecular target: T1, Pyruvate kinase PKM; assay: Activation of PKM2 in human HT-29 cells assessed as increase in PKM2 tetramer formation at 0.6 to 1.2 uM after 48 hrs by Western blot analysis; type: cell-based; settings: filed as activator, dose 0.6-1.2 µM
Target sequence in this assay (P14618 2-531 limits assumed): as above

[16] = molecular target: T1, Pyruvate kinase PKM; assay: Activation of PKM2 in human HT-29 cells assessed as increase in PKM2 tetramer formation by dynamic laser light scattering analysis; type: cell-based; settings: filed as activator
Target sequence in this assay (P14618 2-531 limits assumed): as above

[17] = molecular target: T1, Pyruvate kinase PKM; assay: Activation of PKM2 in human HT-29 cells assessed as increase in cell basal respiration; type: cell-based; settings: filed as activator
Target sequence in this assay (P14618 2-531 limits assumed): as above

[18] = molecular target: T1, Pyruvate kinase PKM; assay: Activation of PKM2 in human HT-29 cells assessed as decrease in lactic acid production; type: cell-based; settings: filed as activator
[19] = tested on: HT-29; assay: Induction of apoptosis in human HT-29 cells after 48 hrs by Annexin V-PE and 7-AAD staining based flow cytometric analysis; type: functional, cell-based; settings: dose 0.45-1.8 µM
[20] = tested on: HT-29; assay: Antiproliferative activity against human HT-29 cells at 0.25 to 1 uM measured after 48 hrs by EdU staining based confocal microscopic analysis; type: functional, cell-based; settings: dose 0.25-1 µM
[21] = tested on: SW480; assay: Antiproliferative activity against human SW480 cells at 0.1 to 0.4 uM measured after 48 hrs by EdU staining based confocal microscopic analysis; type: functional, cell-based; settings: dose 0.1-0.4 µM
[22] = tested on: HT-29; assay: Induction of intracellular ROS production in human HT-29 cells at 0.45 to 1.8 uM incubated for 48 hrs by DCFH-DA staining based flow cytometry analysis; type: functional, cell-based; settings: dose 0.45-1.8 µM
[23] = tested on: SW480; assay: Induction of intracellular ROS production in human SW480 cells at 0.2 to 0.6 uM incubated for 48 hrs by DCFH-DA staining based flow cytometry analysis; type: functional, cell-based; settings: dose 0.2-0.6 µM
[24] = tested on: HT-29; assay: Effect on mitochondrial membrane potential in human HT-29 cells at 0.45 to 1.8 uM measured after 48 hrs by JC-1 staining based assay; type: functional, cell-based; settings: dose 0.45-1.8 µM
[25] = tested on: SW480; assay: Effect on mitochondrial membrane potential in human SW480 cells at 0.2 to 0.6 uM measured after 48 hrs by JC-1 staining based assay; type: functional, cell-based; settings: dose 0.2-0.6 µM
[26] = tested on: HT-29; assay: Induction of apoptosis in human HT-29 cells assessed as decrease in caspase-3 expression at 0.45 to 1.8 uM after 48 hrs by Western blotting analysis; type: functional, cell-based; settings: dose 0.45-1.8 µM
[27] = tested on: HT-29; assay: Induction of apoptosis in human HT-29 cells assessed as decrease in PARP expression at 0.45 to 1.8 uM after 48 hrs by Western blotting analysis; type: functional, cell-based; settings: dose 0.45-1.8 µM
[28] = tested on: HT-29; assay: Induction of apoptosis in human HT-29 cells assessed as increase in cleaved caspase-3 expression at 0.45 to 1.8 uM after 48 hrs by Western blotting analysis; type: functional, cell-based; settings: dose 0.45-1.8 µM
[29] = tested on: HT-29; assay: Induction of cell cycle arrest in human HT-29 cells assessed as accumulation of cells at G2/M phase after 48 hrs by PI staining based flow cytometric analysis; type: functional; settings: dose 0.45-1.8 µM
[30] = tested on: SW480; assay: Induction of cell cycle arrest in human […] cells assessed as accumulation of cells at G2/M phase after 48 hrs by PI staining based flow cytometric analysis; type: functional; settings: dose 0.2-0.6 µM
[31] = tested on: HT-29; assay: Inhibition of epithelial-mesenchymal transition in human HT-29 cells assessed as change in Snail-2 expression; type: functional, cell-based
[32] = molecular target: T1, Pyruvate kinase PKM; assay: Inhibition of PKM2/STAT3 in human HT-29 cells assessed as decrease in phosphorylated STAT3 level at 0.45 to 1.8 uM after 48 hrs by Western blot analysis; type: cell-based; settings: dose 0.45-1.8 µM
[33] = molecular target: T1, Pyruvate kinase PKM; assay: Inhibition of PKM2/STAT3 in human HT-29 cells assessed as increase in bax protein expression at 0.45 to 1.8 uM incubated for 48 hrs by Western blot analysis; type: cell-based; settings: dose 0.45-1.8 µM
[34] = molecular target: T1, Pyruvate kinase PKM; assay: Inhibition of PKM2/STAT3 in human HT-29 cells assessed as reduction in bcl2 protein expression at 0.45 to 1.8 uM incubated for 48 hrs by Western blot analysis; type: cell-based; settings: dose 0.45-1.8 µM
[35] = molecular target: T1, Pyruvate kinase PKM; assay: Inhibition of PKM2/STAT3 in human HT-29 cells assessed as reduction in cyclin-D1 protein expression at 0.45 to 1.8 uM incubated for 48 hrs by Western blot analysis; type: cell-based; settings: dose 0.45-1.8 µM
[36] = tested on: HT-29; assay: Induction of apoptosis in PKM2 knock down human HT-29 cells at 0.45 to 1.8 uM; type: functional, cell-based; settings: dose 0.45-1.8 µM
[37] = tested on: HT-29; assay: Antitumor activity against human HT-29 cells xenografted in BALB/c mouse assessed as reduction in tumor growth at 15 to 30 mg/kg, ip administered once every 2 days for 2 weeks by vernier caliper method; type: functional, organism-based; settings: dose 15-30 mg/kg
[38] = tested on: HT-29; assay: Antitumor activity against human HT-29 cells xenografted in BALB/c mouse assessed as reduction in tumor weight at 15 to 30 mg/kg, ip administered once every two days for 2 weeks by vernier caliper method; type: functional, organism-based; settings: dose 15-30 mg/kg
[39] = Toxicity in BALB/c mouse xenografted with human HT-29 cells assessed as decrease in body weight at 30 mg/kg, ip administered once every 2 days for 2 weeks and monitered every 2 days; type: organism-based; settings: in vivo, 336 h
[40] = tested on: A549; assay: cells; settings: Homo sapiens, A549, 48 h

Activity [1]: Active
AC50 [10]: 0.0863 µM
Activity [11]: Active
inhibition [14]: Active
Activity [15]: Active
Activity [16]: Active
Activity [17]: Active
Activity [18]: Active
inhibition [32]: Active
inhibition [33]: Active
inhibition [34]: Active
inhibition [35]: Active
IC50 [40]: 1.67 µM
SMILES: C=C1C(=O)O[C@H]2[C@H]1CC/C(COC(=O)c1ccc3nccc(Br)c3c1)=C/CC[C@@]1(C)O[C@@H]21
IC50 [2]: 0.66 µM
IC50 [3]: 0.22 µM
IC50 [4]: 1.79 µM
IC50 [5]: 3.9 µM
IC50 [6]: 1.03 µM
IC50 [7]: 2.02 µM
selectivity ratio [8]: 3.06
Ratio IC50 [9]: 9.18
Activity [12]: Active
Activity [13]: inactive
Activity [19]: Dose-Dependent Effect
Activity [20]: Active
Activity [21]: Active
Activity [22]: Active
Activity [23]: Active
Activity [24]: Active
Activity [25]: Active
Activity [26]: Active
Activity [27]: Active
Activity [28]: Active
Activity [29]: Dose-Dependent Effect
Activity [30]: Dose-Dependent Effect
inhibition [31]: inactive
Activity [36]: inactive
Activity [37]: Active
Activity [38]: Active
Activity [39]: Non-Toxic
